In series [1] the test system is angiogenesis in chorio-allantoic membrane (CAM) of the chicken embryo. Put plainly: Inhibition of angiogenesis in chorio-allantoic membrane (CAM) of the chicken embryo in the incubated chicken egg. The format is in vivo. To be noted: for Degree of Inhibition I: number of CAM / Degree of Inhibition II: number of CAM / Degree of Inhibition III: number of CAM / Degree of Inhibition 0: number of CAM: n = 5 tested CAM, 2 days incubation; for Degree of Inhibition I: number of CAM: I-degree: avascular area 2 mm to 4 mm in diameter; for Degree of Inhibition II: number of CAM: II-degree: avascular area 4 mm to 6 mm in diameter; for Degree of Inhibition III: number of CAM: III-degree: avascular area greater than 6 mm in diameter; for Degree of Inhibition 0: number of CAM: zero-degree: avascular area less than 2 mm in diameter. Here is the method:
(§1) Fertilized chicken eggs were incubated for 4 days, and one hole was then bored by a gimlet at the top of the air chamber of the incubated eggs and another hole was bored at the lower lateral part of the egg. The white of egg (about 2 ml) was removed by suction at the lower hole of the egg. The air within the air chamber was sucked off through the hole bored at the top of the air chamber of the egg so that the eggshell membrane was released from the chorio-allantoic membrane (CAM) of the chicken embryo. The hole at the lower lateral part of the egg was then sealed. A part of the eggshell was then cut off from the top of the air chamber of the egg and a silicone ring having an inner diameter of 3 mm was placed directly on the chorio-allantoic membrane (having a diameter of 1 to 3 mm) in each egg, followed by pouring a solution (10 μl) containing a predetermined amount of actinonin and 1% methylcellulose in physiological saline into the silicone ring. The top of the air chamber of the egg was covered by a cap and the eggs were then further incubated for 2 days in an incubator. After this further incubation for 2 days, intralipid was injected into the CAM and the CAM so treated was photographed for estimation of the development of blood vessels.
Degree of inhibition to the angiogenesis was evaluated in term of the following four scales of zero degree to III-degree, according to the method of Crum et al (see Crum R., Szabo S., and Folkman J.; A new class of steroid inhibits angiogenesis in the presence of heparin or a heparin fragment in the "Science" 230, pp. 1375-1378 (1985)). Thus, the degree of inhibition to angiogenesis were estimated as follows:
Zero-degree . . . The avasuclar area where the blood vessels were not developed has a size of less than 2 mm in its diameter.
I-degree . . . The avascular area has a size of from 2 mm to 4 mm in its diameter.
II-degree . . . The avascular area has a size of from 4 mm to 6 mm in its diameter.
III-degree . . . The avascular area has a size of greater than 6 mm in its diameter.
In Table 1 below, there are shown the estimated degrees of the angiogenesis-inhibiting activity of actinonin at a dose of 10 to 100 μg per CAM.

Series [2] has as its system chorio-allantoic membrane. Nature of the series: Development/formation of chorio-allantoic membrane in the incubated chicken egg. The format is in vivo. Here is the method: as §1
The test system of another series is chicken embryo. Put plainly: Growth of the chicken embryo, visually observed. The format is in vivo. Particulars: 500 μg to 10 μg per CAM. Here is the method:
as §1

The next series has as its system mice. Put plainly: Acute toxicity tests in mice by intravenous injection. The format is in vivo. Particulars: 400 mg/kg.
The subject of series [3] is angiogenesis in chorio-allantoic membrane (CAM) of the chicken embryo. Nature of the series: Inhibition of angiogenesis in chorio-allantoic membrane (CAM) of the chicken embryo in the incubated chicken egg. The format is in vivo. Particulars: 500 μg to 10 μg per CAM.
In another series the test system is aminopeptidase M. To be noted: known from the literature; cited from earlier work.
The conditions of series [4]: Kokai No. 15840/86 and U.S. Pat. No. 4,663,342; cited from earlier work.
For series [5] the following is noted: Kokai No. 4228/87; cited from earlier work.
For series [6] the following is noted: I.A.M. Symposia on Microbiology, No. 6 and U.S. Pat. No. 3,240,787; cited from earlier work.

These results are taken from patent US5134156A, “Pharmaceutical composition and method for angiogenesis inhibition” (Zaidan Hojin Biseibutsu Kagaku Kai, priority 1989, dated 1992).

Turning to `CCCCC[C@H](CC(=O)NO)C(=O)N[C@H](C(=O)N1CCC[C@H]1CO)C(C)C` [actinonin], in series [1] (10 μg/CAM), the “Activity inhibitory to the angiogenesis in CAM” value is recorded as “shows a high activity inhibitory to the angiogenesis in CAM”, the “Degree of Inhibition I: number of CAM” value turned out to be 2, the “Degree of Inhibition II: number of CAM” value came to 1 and the “Degree of Inhibition III: number of CAM” value is 1. Moreover, the “Degree of Inhibition 0: number of CAM” value in series [1] (10 μg/CAM) worked out at 1. Also, in [1] (50 μg/CAM), the “Degree of Inhibition I: number of CAM” value was 1, the “Degree of Inhibition II: number of CAM” value turned out to be 2, the “Degree of Inhibition III: number of CAM” value amounted to 1 and the “Degree of Inhibition 0: number of CAM” value turned out to be 1. In series [1] (100 μg/CAM), the “Degree of Inhibition I: number of CAM” value is 1, the “Degree of Inhibition II: number of CAM” value turned out to be 1, the “Degree of Inhibition III: number of CAM” value is on record as 1 and the “Degree of Inhibition 0: number of CAM” value is listed as 2. Also, the Angiogenesis-inhibiting activity result in series [1] (doses of 10 to 100 μg per CAM) is given as “shows an angiogenesis-inhibiting activity”. In addition, the “Inhibition to the development of chorio-allantoic membrane” value in series [2] (500 μg to 10 μg per CAM, compared to untreated membranes) is given as “chorio-allantoic membranes of smaller dimensions as compared to those of the untreated membranes”. Besides, the “Inhibition of the formation of chorio-allantoic membrane” value in series [2] (conclusion from the CAM test) is reported as “without inhibiting the formation of chorio-allantoic membrane”. Besides, in the series with chicken embryo, the “Growth of the chicken embryo as a whole” value is on record as “it was not found that the growth of the chicken embryo as a whole can be inhibited”. The “Deaths in acute toxicity tests” value in the series with mice was “no deaths”. The “Inhibition of angiogenesis in the chorio-allantoic membrane” value in series [3] is “can inhibit the angiogenesis”. Further, in the series with aminopeptidase M, the “Activity inhibitory to aminopeptidase M” value is “exhibits an activity inhibitory to aminopeptidase M”. Further, the Immunopotentiating effect entry in series [4] was “effective as an immunopotentiating agent”. Besides, the Analgesic effect result in series [5] is listed as “effective as an analgesic agent”. Further, the Antibacterial activity result in series [6] is on record as “antibacterially active”.
